Data reported in ChEMBL document CHEMBL4813927, “Discovery of Venturicidin Congeners and Identification of the Biosynthetic Gene Cluster from Streptomyces sp. NRRL S-4” (J Nat Prod, 2021).
Counter-ions that a name gives are not always drawn.

Columns and labels:
[1] = system: MV4-11; assay: Cytotoxicity against human MV4-11 cells assessed as inhibition of cell growth measured after 72 hrs by Celltiter-Glo assay; assay type: functional, cell-based; conditions: MV4-11, 72 h
[2] = system: Hep 3B2; assay: Cytotoxicity against human Hep3B cells assessed as inhibition of cell growth measured after 72 hrs by Celltiter-Glo assay; assay type: functional, cell-based
[3] = biological target: T1, Receptor-type tyrosine-protein kinase FLT3 (Homo sapiens, UniProt P36888); assay: Inhibition of FLT3 (unknown origin) using MBP as substrate incubated for 40 mins in presence of ATP by ADP-Glo assay
T1 sequence (P36888 whole entry): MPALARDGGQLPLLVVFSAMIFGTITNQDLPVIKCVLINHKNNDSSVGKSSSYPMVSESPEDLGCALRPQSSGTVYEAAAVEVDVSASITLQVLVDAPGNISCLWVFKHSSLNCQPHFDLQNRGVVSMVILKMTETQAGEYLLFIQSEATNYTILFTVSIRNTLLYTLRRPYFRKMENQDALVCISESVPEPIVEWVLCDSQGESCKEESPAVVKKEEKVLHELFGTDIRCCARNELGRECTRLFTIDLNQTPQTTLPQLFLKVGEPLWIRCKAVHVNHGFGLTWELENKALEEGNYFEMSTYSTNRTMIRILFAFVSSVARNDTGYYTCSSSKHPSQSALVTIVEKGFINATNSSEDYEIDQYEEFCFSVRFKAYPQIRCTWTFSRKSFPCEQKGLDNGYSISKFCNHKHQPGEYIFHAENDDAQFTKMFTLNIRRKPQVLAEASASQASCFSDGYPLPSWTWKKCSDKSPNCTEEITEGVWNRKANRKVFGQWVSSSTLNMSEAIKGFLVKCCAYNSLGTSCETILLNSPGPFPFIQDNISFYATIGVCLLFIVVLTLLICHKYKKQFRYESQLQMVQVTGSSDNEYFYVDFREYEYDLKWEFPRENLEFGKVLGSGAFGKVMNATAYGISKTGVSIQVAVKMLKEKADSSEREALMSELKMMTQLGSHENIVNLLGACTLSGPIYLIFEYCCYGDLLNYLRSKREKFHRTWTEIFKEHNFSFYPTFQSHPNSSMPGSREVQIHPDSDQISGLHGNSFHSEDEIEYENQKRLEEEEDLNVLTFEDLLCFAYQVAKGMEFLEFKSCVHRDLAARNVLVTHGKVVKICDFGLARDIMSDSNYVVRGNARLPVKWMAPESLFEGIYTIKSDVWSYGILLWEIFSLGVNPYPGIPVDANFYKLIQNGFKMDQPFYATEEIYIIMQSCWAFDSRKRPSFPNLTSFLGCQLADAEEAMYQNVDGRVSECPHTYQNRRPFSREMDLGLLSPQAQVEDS

[4] = system: MDA-MB-468; assay: Cytotoxicity against human MDA-MB-468 cells assessed as inhibition of cell growth measured after 72 hrs by Celltiter-Glo assay; assay type: functional, cell-based; conditions: MDA-MB-468, 72 h
[5] = system: B16; assay: Cytotoxicity against mouse B16 cells assessed as inhibition of cell growth measured after 72 hrs by Celltiter-Glo assay; assay type: functional, cell-based; conditions: B16, 72 h
[6] = system: K562; assay: Cytotoxicity against human K562 cells assessed as inhibition of cell growth measured after 72 hrs by Celltiter-Glo assay; assay type: functional, cell-based; conditions: K562, 72 h

## CCC(=O)[C@@H](C)[C@@H](O)[C@H](C)C[C@@H](C)[C@H]1OC(=O)C[C@@]2(OC)CC=C(C)[C@H](O2)/C(C)=C/CCC[C@@H](O[C@H]2C[C@@H](OC(N)=O)[C@H](O)[C@@H](C)O2)/C=C/[C@H](C)C[C@H]1C
[1]
  IC50: 4.1 µM

## CCC(=O)[C@@H](C)[C@@H](O)[C@H](C)C[C@@H](C)[C@H]1OC(=O)C[C@@]2(O)CC=C(C)[C@H](O2)/C(C)=C/CCC[C@@H](O[C@H]2C[C@@H](OC(N)=O)[C@H](O)[C@@H](C)O2)/C=C/[C@H](C)C[C@H]1C
[2]
  IC50: 15 µM
[3]
  IC50: 64 µM
[4]
  IC50: 8.3 µM
[5]
  IC50: 12 µM
[6]
  IC50: 5.8 µM
[1]
  IC50: 0.09 µM

## CCC(=O)[C@@H](C)[C@H](O)[C@H](C)C[C@@H](C)[C@H]1OC(=O)C[C@@]2(O)CC=C(C)[C@H](O2)/C(C)=C/CCC[C@@H](O[C@H]2C[C@@H](OC(N)=O)[C@H](O)[C@@H](C)O2)/C=C/[C@H](C)C[C@H]1C
[1]
  IC50: 60 µM

## CCC(=O)[C@@H](C)[C@@H](O)[C@H](C)C[C@@H](C)[C@H]1OC(=O)C[C@@]2(O)CC[C@H](C)[C@H](O2)/C(C)=C/CCC[C@@H](O[C@H]2C[C@@H](OC(N)=O)[C@H](O)[C@@H](C)O2)/C=C/[C@H](C)C[C@H]1C
[1]
  IC50: 0.94 µM

## COc1cccc2c1C(=O)c1c(O)c3c(c(O)c1C2=O)C[C@@](O)(C(=O)CO)C[C@@H]3O[C@H]1C[C@H](N)[C@H](O)[C@H](C)O1 [DOXORUBICIN HYDROCHLORIDE]
[1]
  IC50: 0.14 µM
